According to patent US7601743B2, “Cyano anthranilamide insecticides” (Syngenta Crop Protection, Inc., priority 2005, dated 2009):

Columns and labels:
Type in all cases: in vivo
Diabrotica balteata = test: Activity against Diabrotica balteata (sprayed maize seedlings); conditions: 144 h, 400 ppm spray on maize seedlings, 2nd instar larvae, 6 days, read-out: percentage reduction in the population (% activity)
Protocol: Maize seedlings are sprayed with an aqueous emulsion spray mixture comprising 400 ppm of active ingredient and, after the spray coating has dried on, populated with 10 larvae (2nd instar) of Diabrotica balteata and introduced into a plastic container. 6 days later, the percentage reduction in the population (% activity) is determined by comparing the number of dead larvae between the treated and untreated plants.

Heliothis virescens = test: Activity against Heliothis virescens (foliar application); conditions: 144 h, 400 ppm spray on young soya plants, 1st instar, 6 days, read-out: percentage reduction in the population and in the feeding damage (% activity)
Protocol: (§1) Young soya plants are sprayed with an aqueous emulsion spray mixture comprising 400 ppm of active ingredient and, after the spray coating has dried on, populated with 10 caterpillars (1st instar) of Heliothis virescens and introduced into a plastic container. 6 days later, the percentage reduction in the population and in the feeding damage (% activity) are determined by comparing the number of dead caterpillars and the feeding damage between the treated and untreated plants.

Plutella xylostella = test: Activity against Plutella xylostella; conditions: 72 h, 400 ppm spray on young cabbage plants, 3rd instar, 3 days, read-out: percentage reduction in the population and in the feeding damage (% activity)
Protocol: as §1, with “cabbage” for “soya”, “(3rd” for “(1st”, “Plutella xylostella” for “Heliothis virescens”, “3” for “6”

Spodoptera littoralis = test: Activity against Spodoptera littoralis (sprayed soya plants); conditions: 72 h, 400 ppm spray on young soya plants, 1st instar, 3 days, read-out: percentage reduction in the population and in the feeding damage (% activity)
Protocol: as §1, with “Spodoptera littoralis” for “Heliothis virescens”, “3” for “6”

Measured: inhibition at 400 ppm

Cc1cc(C#N)cc(C(=O)NC2(C3CC3)CC2)c1NC(=O)c1cc(C(F)(F)F)nn1-c1ncccc1Cl [A.1.1, 2-(3-Chloro-pyridin-2-yl)-5-trifluoromethyl-2H-pyrazole-3-carboxylic acid [2-(bicyclopropyl-1-ylcarbamoyl)-4-cyano-6-methyl-phenyl]-amide]
> 80%: all assays above
